Source: the NIST ThermoML archive (doi:10.1016/j.fluid.2011.03.030)

Key:
[1] = Liquid; for viscosity: Capillary tube (Ostwald / Ubbelohde) method; for mass density: Vibrating tube method; for vapor or sublimation pressure / Normal boiling temperature: Ebulliometric method (Recirculating still)
[2] = xn = mol fraction of the nth substance listed; conditions: 101 kPa, Liquid; for viscosity: Capillary tube (Ostwald / Ubbelohde) method; for mass density: Vibrating tube method

C1C[C@@H]2[C@H]3CC[C@H](C3)[C@@H]2C1 [exo-tetrahydrodicyclopentadiene]
[1]
Conditions | mass density, 298.15 K [kg/m3] | mass density, 303.15 K [kg/m3] | mass density, 308.15 K [kg/m3] | mass density, 313.15 K [kg/m3] | viscosity, 298.15 K [mPa·s] | viscosity, 303.15 K [mPa·s] | viscosity, 308.15 K [mPa·s] | viscosity, 313.15 K [mPa·s]
101 kPa | – | 927.41 | 923.48 | 919.58 | – | 2.522 | 2.298 | 2.107
101.33 kPa | 931.4 | – | – | – | 2.739 | – | – | –

[1]
Conditions | vapor or sublimation pressure [kPa]
396 K | 16.64
401.4 K | 20.62
413.8 K | 30.3
418.3 K | 34.79
426.8 K | 44.86
431.2 K | 50.7
434.5 K | 55.76
436.6 K | 59.2
439 K | 63.22
441.1 K | 66.63
442.7 K | 69.49
442.8 K | 69.77
444.3 K | 72.58
445.7 K | 75.11
446.1 K | 75.89
450 K | 83.92
457.3 K | 101.1

Conditions | Normal boiling temperature [°C]
[1] | 184.94

C1C[C@@H]2[C@H]3CC[C@H](C3)[C@@H]2C1 [exo-tetrahydrodicyclopentadiene] + CC1CCCCC1
[2]
Conditions | mass density, 303.15 K [kg/m3] | mass density, 308.15 K [kg/m3] | mass density, 313.15 K [kg/m3] | viscosity, 303.15 K [mPa·s] | viscosity, 308.15 K [mPa·s] | viscosity, 313.15 K [mPa·s]
x2 = 0 | 927.41 | 923.48 | 919.58 | 2.522 | 2.298 | 2.107
x2 = 0.1404 | 907.42 | 903.45 | 899.48 | 2.047 | 1.891 | 1.736
x2 = 0.2593 | 889.67 | 885.65 | 881.63 | 1.754 | 1.616 | 1.475
x2 = 0.3693 | 872.78 | 868.72 | 864.67 | 1.502 | 1.386 | 1.275
x2 = 0.4981 | 851.85 | 847.73 | 843.61 | 1.258 | 1.163 | 1.078
x2 = 0.5813 | 837.98 | 833.82 | 829.66 | 1.113 | 1.02 | 0.963
x2 = 0.6745 | 821.76 | 817.58 | 813.38 | 0.975 | 0.897 | 0.862
x2 = 0.763 | 805.84 | 801.58 | 797.33 | 0.866 | 0.798 | 0.754
x2 = 0.8469 | 790.22 | 785.95 | 781.66 | 0.772 | 0.711 | 0.675
x2 = 0.9245 | 775.47 | 771.16 | 766.83 | 0.693 | 0.644 | 0.612

CC1CCCCC1 [methylcyclohexane]
[1]
Conditions | mass density, 298.15 K [kg/m3] | mass density, 303.15 K [kg/m3] | mass density, 308.15 K [kg/m3] | mass density, 313.15 K [kg/m3] | viscosity, 298.15 K [mPa·s] | viscosity, 303.15 K [mPa·s] | viscosity, 308.15 K [mPa·s] | viscosity, 313.15 K [mPa·s]
101 kPa | – | 760.65 | 756.29 | 751.93 | – | 0.627 | 0.581 | 0.554
101.33 kPa | 765 | – | – | – | 0.678 | – | – | –

[1]
Conditions | vapor or sublimation pressure [kPa]
321.9 K | 17.91
331.5 K | 25.77
336.8 K | 31.22
342.3 K | 37.99
346.9 K | 44.45
350.7 K | 50.35
355.2 K | 58.09
359.1 K | 65.61
362.3 K | 72.29
364.8 K | 79.09
366.4 K | 85.13
369.8 K | 92.76
373.9 K | 100.7

Conditions | Normal boiling temperature [°C]
[1] | 98.98

CC1CCCCC1 [methylcyclohexane] + C1C[C@@H]2[C@H]3CC[C@H](C3)[C@@H]2C1
[2], x1 = 1
Conditions | mass density [kg/m3] | viscosity [mPa·s]
303.15 K | 760.65 | 0.627
308.15 K | 756.29 | 0.581
313.15 K | 751.93 | 0.554
